The source of these data is patent US20150030668A1 (priority 2012, published 2015).

Molecules are shown by their SMILES. Read-outs that look alike come from different tables or passages of the source.

The test system of assay [1] is Mycobacterium tuberculosis. The note with it: NAC at 10 millimolar.
For assay [2] the following is noted: rat liver, CO-60, control (water) = 0%. The text has this: The tissue from the control animals (water) served as the 100% of the toxin remaining in the tissue. The animals receiving: • a.
Assay [3] concerns aflatoxin B1-induced hepatic nodules or tumors. Conditions: mouse, in vivo; cited from earlier work.

For `CC(=O)N[C@@H](CS)C(=O)O` [NAC, N-acetyl cysteine], the “CFU/ml reduced to” value in assay [1] was 8,000 CFU/ml.

For the compound `N[C@@H](CCC(=O)N[C@@H](CS)C(=O)NCC(=O)O)C(=O)O` [Plain glutathione, glutathione (reduced)], the “removal of the toxin” value in assay [2] was 10%; in assay [2] (listed as Intravenous glutathione), 70%. Moreover, the “decreasing the incidence or size of hepatic nodules or tumors” value in assay [3] was “no benefit”.
